Measurements reported in EP2790511B1 (Merck Sharp & Dohme Corp., priority 2011, dated 2013).
Read-outs that look alike come from different tables or passages of the source.

Target: T1, hROMK (hKir1.1) (Homo sapiens, UniProt P48048)
T1 construct: expressed in transfected cells
T1 sequence (P48048 1-391): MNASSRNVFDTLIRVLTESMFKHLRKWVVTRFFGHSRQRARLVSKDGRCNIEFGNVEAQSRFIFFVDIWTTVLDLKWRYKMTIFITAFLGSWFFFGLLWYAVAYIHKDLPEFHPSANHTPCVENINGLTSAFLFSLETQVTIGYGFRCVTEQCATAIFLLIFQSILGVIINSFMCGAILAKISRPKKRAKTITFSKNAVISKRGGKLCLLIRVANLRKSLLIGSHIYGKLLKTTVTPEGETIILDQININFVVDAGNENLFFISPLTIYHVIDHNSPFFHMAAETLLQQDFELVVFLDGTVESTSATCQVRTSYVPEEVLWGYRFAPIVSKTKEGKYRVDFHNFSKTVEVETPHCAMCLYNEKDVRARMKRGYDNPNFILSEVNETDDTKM
Experiment: Thallium Flux Assay
Assay type: cell-based
How it was run: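 HEK293 cells stably expressing hROMK, loaded with FluxOR dye 90 min at ambient temperature, then compound 30 min with 0.3 mM ouabain in probenecid buffer pH 7.4.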

[1] = HEK293 cells stably expressing hROMK (hKir1.1), FLIPR-Tetra, read-out: Thallium Flux IC50

| Structure (SMILES) | IC50 (Thallium Flux IC50) [nM] | IC50 [1] [nM] |
| --- | --- | --- |
| Cc1c([C@H]2CN3CCN(C(=O)Cc4ccc(-n5cnnn5)nc4)C[C@H]3CN2)ccc(F)c1C#N [Example 192, 6-fluoro-2-methyl-3-[(3S,9aR)-8-{[6-(1H-tetrazol-1-yl)pyridin-3-yl]acetyl}octahydro-2H-pyrazino[1,2-a]pyrazin-3-yl]benzonitrile] | 70 | – |
| COc1cc([C@H]2CN3CCN(C(=O)Cc4ccc(-n5cnnn5)nc4)C[C@H]3CO2)ccc1C#N [Example 56, 2-methoxy-4-[(3S,9aS)-8-{[6-(1H-tetrazol-1-yl)pyridin-3-yl]acetyl}octahydropyrazino[2,1-c][1,4]oxazin-3-yl]benzonitrile] | – | 120 |
| Cc1c([C@@H]2CN3CCN(C(=O)Cc4cnc(-n5cnnn5)nc4)C[C@H]3CO2)ccc2c1COC2=O [Example 16] | – | 480 |
| COc1ccc([C@@H]2CN3CCN(C(=O)Cc4cnc(-n5cnnn5)nc4)C[C@H]3CO2)c(C)c1C#N [Example 135, 6-methoxy-2-methyl-3-[(3R,9aS)-8-{[2-(1H-tetrazol-1-vl)pvrimidin-5-yl]acetyl}octahydropyrazino[2,1-c][1,4]oxazin-3-yl]benzonitrile] | 330 | – |
| Cc1c([C@H]2CN3CCN(C(=O)Cc4ccc(-n5cnnn5)nc4)C[C@H]3CS2(=O)=O)ccc(F)c1C#N [Example 187, 3-[(3S,9aS)-2,2-dioxido-8-{[6-(1H-tetrazol-1-yl)pyridin-3-yl]acetyl}octahydropyrazino[2,1-c][1,4]thiazin-3-yl]-6-fluoro-2-methylbenzonitrile] | 280 | – |
| Cc1c([C@H]2CN3CCN(C(=O)Cc4cncc(-n5cnnn5)c4)C[C@H]3CO2)ccc(F)c1C#N [Example 101, 6-fluoro-2-methyl-3-[(3S,9aS)-8-{[5-(1H-tetrazol-1-yl)pyridin-3-y]acetyl}octahydropyrazino[2,1-c][1,4]oxazin-3-yl]benzonitrile] | – | 180 |
| Cc1c([C@H]2CN3CCN(C(=O)Cc4ccc(-n5cnnn5)nc4)C[C@@H]3CO2)ccc2c1COC2=O [Example 24, 4-methyl-5-[(3S,9aR)-8-{[6-(1H-tetrazol-1-yl)pyridin-3-yl]acetyl}octahydropyrazino[2,1-c][1,4]oxazin-3-yl]-2-benzofuran-1(3H)-one] | 160 | – |
| N#Cc1c(F)ccc([C@@H]2CN3CCN(C(=O)Cc4ccc(-n5cnnn5)nc4)C[C@@H]3CO2)c1F [Example 88, 2,6-difluoro-3-[(3R,9aR)-8-{[6-(1H-tetrazol-1-yl)pyridin-3-yl]acetyl}octahydropyrazino[2,1-c][1,4]oxazin-3-yl]benzonitrile] | 90 | – |
| Cc1c([C@@H]2CN3CCN(C(=O)Cc4ccc(-n5cnnn5)cn4)C[C@H]3CN2)ccc(F)c1C#N [Example 195, 6-fluoro-2-methyl-3-[(3R,9aR)-8-{[5-(1H-tetrazol-1-yl)pyridin-2-yl]acetyl}octahydro-2H-pyrazino[1,2-a]pyrazin-3-yl]benzonitrile] | – | 250 |
| N#Cc1ccc([C@@H]2CN3CCN(C(=O)Cc4ccc(-n5cnnn5)nc4)C[C@H]3CO2)cc1F [Example 66, 2-fluoro-4-[(3R,9aS)-8-{[6-(1H-tetrazol-1-yl)pyridin-3-yl]acetyl}octahydropyrazino[2,1-c][1,4]oxazin-3-yl]benzonitrile] | – | 370 |
| Cc1c([C@H]2CN3CCN(C(=O)Cc4ccc(-n5cnnn5)nc4)C[C@H]3CS2)ccc(F)c1C#N [Example 185, 6-fluoro-2-methyl-3-[(3S,9aS)-8-{[6-(1H-tetrazol-1-yl)pyridin-3-yl]acetyl}octahydropyrazino[2,1-c][1,4]thiazin-3-yl]benzonitrile] | – | 180 |
| N#Cc1c(F)ccc([C@@H]2CN3CCN(C(=O)Cc4ccc(-n5cnnn5)nc4)C[C@H]3CO2)c1Cl [Example 51, 2-chloro-6-fluoro-3-[(3R,9aS)-8-{[6-(1H-tetrazol-1-yl)pyridin-3-yl]acetyl}octahydropyrazino[2,1-c][1,4]oxazin-3-yl]benzonitrile] | – | 50 |
| Cc1c([C@H]2CN3CCN(C(=O)Cc4ccc(-n5cnnn5)cn4)C[C@H]3CS2)ccc(F)c1C#N [Example 186] | – | 270 |
| Cc1c([C@@H]2CN3CCN(C(=O)Cc4ccc(-n5cnnn5)nc4)C[C@H]3CO2)cccc1-n1cnnn1 [Example 104, (3R,9aS)-3-[2-methyl-3-(1H-tetrazol-1-yl)phenyl]-8-{[6-(1H-tetrazol-1-yl)pyridin-3-yl]acetyl}octahydropyrazino[2,1-c][1,4]oxazine] | – | 480 |
| O=C(Cc1ccc(-n2cnnn2)cn1)N1CCN2C[C@@H](c3ccc4nonc4c3)OC[C@@H]2C1 [Example 178, (3R,9aS)-3-(2,1,3-benzoxadiazol-5-yl)-8-{[5-(1H-tetrazol-1-vl)pvridin-2-yl]acetyl}octahydropyrazino[2,1-c][1,4]oxazine] | – | 350 |
| Cc1c([C@@H]2CN3CCN(C(=O)Cc4ccc(-n5cnnn5)nc4)C[C@H]3CO2)csc1C#N [Example 68, 3-methyl-4-[(3R,9aS)-8-{[6-(1H-tetrazol-1-yl)pyridin-3-yl]acetyl}octahydropyrazino[2,1-c][1,4]oxazin-3-yl]thiophene-2-carbonitrile] | – | 40 |
| Cc1c([C@H]2CN3CCN(C(=O)Cc4ccc(-n5cnnn5)nc4)C[C@H]3CO2)csc1C#N [Example 69, 3-methyl-4-[(3S,9aS)-8-{[6-(1H-tetrazol-1-yl)pyridin-3-yl]acetyl}octahydropyrazino[2,1-c][1,4]oxazin-3-yl]thiophene-2-carbonitrile] | – | 110 |
| Cc1c([C@@H]2CN3CCN(C(=O)Cc4cnc(-n5cnnn5)nc4)C[C@@H]3CO2)ccc2c1COC2=O [Example 122, 4-methyl-5-[(3R,9aR)-8-{[2-(1H-tetrazol-1-yl)pyrimidin-5-yl]acetyl}octahydropyrazino[2,1-c][1,4]oxazin-3-yl]-2-benzofuran-1(3H)-one] | – | 390 |
| Cc1c([C@H]2CN3CCN(C(=O)C(F)(F)c4cnc(-n5cnnn5)nc4)C[C@H]3CO2)ccc(F)c1C#N [Example 188, 3-((3S,9aS)-8-(2-(2-(1H-tetrazol-1-yl)pyrimidin-5-yl)-2,2-difluoroacetyl)octahydropyrazino[2,1-c][1,4]oxazin-3-yl)-6-fluoro-2-methylbenzonitrile] | – | 350 |
| Cc1cc(-n2cnnn2)cnc1CC(=O)N1CCN2C[C@@H](c3ccc(F)c(C#N)c3C)OC[C@@H]2C1 [Example 84, 6-fluoro-2-methyl-3-[(3R,9aS)-8-{[3-methyl-5-(1H-tetrazol-1-vl)pvridin-2-yl]acetyl}octahydropyrazino[2,1-c][1,4]oxazin-3-yl]benzonitrile] | 230 | – |
| Cc1c([C@@H]2CN3CCN(C(=O)Cc4ccc(-n5cnnn5)cn4)C[C@H]3CO2)csc1C#N [Example 70, 3-methyl-4-[(3R,9aS)-8-{[5-(1H-tetrazol-1-yl)pyridin-2-yl]acetyl}octahydropyrazino[2,1-c][1,4]oxazin-3-yl]thiophene-2-carbonitrile] | 270 | – |
| N#Cc1ccc([C@H]2CN3CCN(C(=O)Cc4ccc(-n5cnnn5)nc4)C[C@H]3CO2)cc1F [Example 67, 2-fluoro-4-[(3S,9aS)-8-{[6-(1H-tetrazol-1-yl)pyridin-3-yl]acetyl}octahydropyrazino[2,1-c][1,4]oxazin-3-yl]benzonitrile] | – | 70 |
| Cc1c([C@@H]2CN3CCN(C(=O)Cc4cnc(-n5cnnn5)cn4)C[C@@H]3CO2)ccc2c1COC2=O [Example 123, 4-methyl-5-[(3R,9aR)-8-{[5-(1H-tetrazol-1-yl)pyrazin-2-yl]acetyl}octahydropyrazino[2,1-c] [1,4]oxazin-3-yl]-2-benzofuran-1(3H)-one] | 690 | – |
| Cc1c([C@H]2CN3CCN(C(=O)Cc4cnc(-n5cnnn5)nc4)C[C@H]3CCO2)ccc(F)c1C#N (single isomer, unassigned) [Example 172] | 220 | – |
| COc1ccc([C@H]2CN3CCN(C(=O)Cc4ccc(-n5cnnn5)nc4)C[C@H]3CO2)c(C)c1C#N [Example 49, 6-methoxy-2-methyl-3-[(3S,9aS)-8-{[6-(1H-tetrazol-1-vl)pvridin-3-yl]acetyl}octahydropyrazino[2,1-c][1,4]oxazin-3-yl]benzonitrile] | 290 | – |
| Cc1c([C@H]2CN3CCN(C(=O)Cc4cccc(-n5cnnn5)n4)C[C@@H]3CO2)ccc(F)c1C#N [Example 160, 6-fluoro-2-methyl-3-[(3S,9aR)-8-{[6-(1H-tetrazol-1-yl)pyridin-2-yl]acetyl}octahydropyrazino[2,1-c][1,4]oxazin-3-yl]benzonitrile] | – | 390 |
| COc1c([C@H]2CN3CCN(C(=O)Cc4ccc(-n5cnnn5)cn4)C[C@H]3CO2)ccc(F)c1C#N [Example 63, 6-fluoro-2-methoxy-3-[(3S,9aS)-8-{[5-(1H-tetrazol-1-vl)pvridin-2-yl]acetyl}octahydropyrazino[2,1-c][1,4]oxazin-3-yl]benzonitrile] | – | 180 |
| Cc1c([C@H]2CN3CCN(C(=O)Cc4ccc(-n5cnnn5)cn4)C[C@@H]3CO2)ccc(F)c1C#N [Example 31, 6-fluoro-2-methyl-3-[(3S,9aR)-8-{[5-(1H-tetrazol-1-yl)pyridin-2-yl]acetyl}octahydropyrazino[2,1-c][1,4]oxazin-3-yl]benzonitrile] | – | 160 |
